According to patent US7833722B2, “Ligands for G protein-coupled receptor protein and use thereof” (Takeda Pharmaceutical Company Limited, priority 2004, dated 2010):

Target: GPR17-GFP fusion protein (UniProt P42212+Q13304, F64L/I167T/S65C)
Experiment: Movement of GPR17-GFP fusion protein expressed in CHO cells into cells (confocal microscope)
Format: cell-based, human
Details: 100 μM, 45 minutes, 37° C.

For NCC(=O)CCC(=O)O [ALA, 5-aminolevulinic acid], the “localization of GPR17-GFP fusion protein (fluorescent images of GFP)” value was “moved in part to the cytoplasm”.
